# Results: the supplement of paper PMC10307832
# Columns and labels:
# Test in all cases: relative viability (nuclei count vs DMSO), 5 days (fraction); higher = more cells survive
# [1] = compound: CCN1C(=O)C2=CC(=C(N=C2N(C1=O)C3CC3)N)C(=O)N + C[C@]1(O)C[C@@H](c2nc(-c3ccc4ccc(-c5ccccc5)nc4c3)c3c(N)nccn32)C1 [Linsitinib] (partner 1 µM)
# In short: (§1)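 One day after seeding in 1536-well plates, lung cancer cell lines were dosed by pin tool. Dosing was either single-drug or a fixed anchor-drug dose plus five library-drug doses (not always all listed) in √10 steps. After 5 days, nuclei were stained in one fix-and-stain step and counted on 4× images, and relative viability is the nuclei count of treated wells over that of vehicle wells, given as the median of duplicate plates.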
# [2] = compound: CCN1C(=O)C2=CC(=C(N=C2N(C1=O)C3CC3)N)C(=O)N + C[C@@H](Oc1cc(-c2cnn(C3CCNCC3)c2)cnc1N)c1c(Cl)ccc(F)c1Cl [Crizotinib] (partner 1 µM)
# In short: as §1
# [3] = compound: CCN1C(=O)C2=CC(=C(N=C2N(C1=O)C3CC3)N)C(=O)N + COc1cc2c(Oc3ccc(NC(=O)C4(C(=O)Nc5ccc(F)cc5)CC4)cc3F)ccnc2cc1OCCCN1CCOCC1 [Foretinib] (partner 0.25 µM)
# In short: as §1
# [4] = compound: CCN1C(=O)C2=CC(=C(N=C2N(C1=O)C3CC3)N)C(=O)N + Cc1nc(NC(=O)N2CCC[C@H]2C(N)=O)sc1-c1ccnc(C(C)(C)C(F)(F)F)c1 [Alpelisib] (partner 2 µM)
# In short: as §1
# [5] = compound: CCN1C(=O)C2=CC(=C(N=C2N(C1=O)C3CC3)N)C(=O)N + CS(=O)(=O)N1CCN(Cc2cc3nc(-c4cccc5[nH]ncc45)nc(N4CCOCC4)c3s2)CC1 [Pictilisib] (partner 1 µM)
# In short: as §1
# [6] = compound: CCN1C(=O)C2=CC(=C(N=C2N(C1=O)C3CC3)N)C(=O)N + CC(C)C[C@H](NC(=O)[C@H](Cc1ccccc1)NC(=O)c1cnccn1)B(O)O [Bortezomib] (partner 0.002 µM)
# In short: as §1
# [7] = compound: CCN1C(=O)C2=CC(=C(N=C2N(C1=O)C3CC3)N)C(=O)N + CC1(C)CCC(c2ccc(Cl)cc2)=C(CN2CCN(c3ccc(C(=O)NS(=O)(=O)c4ccc(N[C@H](CCN5CCOCC5)CSc5ccccc5)c(S(=O)(=O)C(F)(F)F)c4)cc3)CC2)C1 [Navitoclax] (partner 0.5 µM)
# In short: as §1
# [8] = compound: CCN1C(=O)C2=CC(=C(N=C2N(C1=O)C3CC3)N)C(=O)N + CS(=O)(=O)CCNCc1ccc(-c2ccc3ncnc(Nc4ccc(OCc5cccc(F)c5)c(Cl)c4)c3c2)o1 [Lapatinib] (partner 2 µM)
# In short: as §1
# [9] = compound: CCN1C(=O)C2=CC(=C(N=C2N(C1=O)C3CC3)N)C(=O)N + O=C(c1cc(Cc2n[nH]c(=O)c3ccccc23)ccc1F)N1CCN(C(=O)C2CC2)CC1 [Olaparib] (partner 8 µM)
# In short: as §1
# [10] = compound: CCN1C(=O)C2=CC(=C(N=C2N(C1=O)C3CC3)N)C(=O)N
# In short: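 Lung cancer cell lines in 1536-well plates were kept overnight at 37 °C, then pinned with five library-drug doses (not always all listed) spaced by √10 on vehicle-anchored plates. After 5 days without medium change, cells were fixed, permeabilised and Hoechst-stained in one step, imaged at 4×, and nuclei were counted with MetaXpress. Viability is treated-well nuclei divided by vehicle-well nuclei, taken as the median over plates. Plates passed only with control CV below 25% and at least one doubling.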
# [11] = compound: CCN1C(=O)C2=CC(=C(N=C2N(C1=O)C3CC3)N)C(=O)N + Cc1nc(Nc2ncc(C(=O)Nc3c(C)cccc3Cl)s2)cc(N2CCN(CCO)CC2)n1 [Dasatinib] (partner 0.075 µM)
# In short: as §1
# [12] = compound: CCN1C(=O)C2=CC(=C(N=C2N(C1=O)C3CC3)N)C(=O)N + Nc1nc2[nH]cc(CCc3ccc(C(=O)N[C@@H](CCC(=O)O)C(=O)O)cc3)c2c(=O)[nH]1 [Pemetrexed] (partner 0.2 µM)
# In short: as §1
# [13] = compound: CCN1C(=O)C2=CC(=C(N=C2N(C1=O)C3CC3)N)C(=O)N + CCNC(=O)c1noc(-c2cc(C(C)C)c(O)cc2O)c1-c1ccc(CN2CCOCC2)cc1 [Luminespib] (partner 0.01 µM)
# In short: as §1
# [14] = compound: CCN1C(=O)C2=CC(=C(N=C2N(C1=O)C3CC3)N)C(=O)N + COc1cccc2cc(-c3nc([C@H]4CC[C@H](C(=O)O)CC4)n4ncnc(N)c34)[nH]c12 [OSI-027] (partner 0.5 µM)
# In short: as §1
# [15] = compound: CCN1C(=O)C2=CC(=C(N=C2N(C1=O)C3CC3)N)C(=O)N + N=C(N)NC(=N)NCCc1ccccc1 [Phenformin] (partner 250 µM)
# In short: as §1
cell line,measurement,setting,value
NCI-H1299,relative viability,[1]; first compound 0.253 µM,0.991
same,relative viability,[1]; first compound 0.8 µM,0.98
same,relative viability,[1]; first compound 2.53 µM,0.93
same,relative viability,[1]; first compound 8 µM,0.982
same,relative viability,[2]; first compound 0.253 µM,1
same,relative viability,[2]; first compound 0.8 µM,0.914
same,relative viability,[2]; first compound 2.53 µM,0.924
same,relative viability,[2]; first compound 8 µM,0.966
same,relative viability,[3]; first compound 0.253 µM,1.16
same,relative viability,[3]; first compound 0.8 µM,1.1
same,relative viability,[3]; first compound 2.53 µM,1.08
same,relative viability,[3]; first compound 8 µM,1.05
same,relative viability,[4]; first compound 0.253 µM,1.01
same,relative viability,[4]; first compound 0.8 µM,1.15
same,relative viability,[4]; first compound 2.53 µM,1.05
same,relative viability,[4]; first compound 8 µM,1.08
same,relative viability,[5]; first compound 0.253 µM,0.879
same,relative viability,[5]; first compound 0.8 µM,0.81
same,relative viability,[5]; first compound 2.53 µM,0.701
same,relative viability,[5]; first compound 8 µM,0.962
same,relative viability,[6]; first compound 0.253 µM,1.01
same,relative viability,[6]; first compound 0.8 µM,1.01
same,relative viability,[6]; first compound 2.53 µM,1
same,relative viability,[6]; first compound 8 µM,0.999
same,relative viability,[7]; first compound 0.253 µM,1.07
same,relative viability,[7]; first compound 0.8 µM,1.06
same,relative viability,[7]; first compound 2.53 µM,1.04
same,relative viability,[7]; first compound 8 µM,1.01
same,relative viability,[8]; first compound 0.253 µM,1.06
same,relative viability,[8]; first compound 0.8 µM,0.978
same,relative viability,[8]; first compound 2.53 µM,0.933
same,relative viability,[8]; first compound 8 µM,0.947
same,relative viability,[9]; first compound 0.253 µM,0.922
same,relative viability,[9]; first compound 0.8 µM,0.956
same,relative viability,[9]; first compound 2.53 µM,0.918
same,relative viability,[9]; first compound 8 µM,0.942
same,relative viability,[10]; 0.253 µM,1.02
same,relative viability,[10]; 0.8 µM,1.02
same,relative viability,[10]; 2.53 µM,0.986
same,relative viability,[10]; 8 µM,0.976
NCI-H1563,relative viability,[1]; first compound 0.253 µM,1.17
same,relative viability,[1]; first compound 0.8 µM,1.1
same,relative viability,[1]; first compound 2.53 µM,1.26
same,relative viability,[1]; first compound 8 µM,1.04
same,relative viability,[11]; first compound 0.253 µM,0.467
same,relative viability,[11]; first compound 0.8 µM,0.41
same,relative viability,[11]; first compound 2.53 µM,0.46
same,relative viability,[11]; first compound 8 µM,0.422
same,relative viability,[2]; first compound 0.253 µM,0.907
same,relative viability,[2]; first compound 0.8 µM,0.881
same,relative viability,[2]; first compound 2.53 µM,0.991
same,relative viability,[2]; first compound 8 µM,0.811
same,relative viability,[12]; first compound 0.253 µM,0.762
same,relative viability,[12]; first compound 0.8 µM,0.799
same,relative viability,[12]; first compound 2.53 µM,0.965
same,relative viability,[12]; first compound 8 µM,0.742
same,relative viability,[3]; first compound 0.253 µM,0.901
same,relative viability,[3]; first compound 0.8 µM,0.926
same,relative viability,[3]; first compound 2.53 µM,0.933
same,relative viability,[3]; first compound 8 µM,1.01
same,relative viability,[4]; first compound 0.253 µM,0.983
same,relative viability,[4]; first compound 0.8 µM,0.982
same,relative viability,[4]; first compound 2.53 µM,0.913
same,relative viability,[4]; first compound 8 µM,0.783
same,relative viability,[5]; first compound 0.253 µM,0.648
same,relative viability,[5]; first compound 0.8 µM,0.618
same,relative viability,[5]; first compound 2.53 µM,0.728
same,relative viability,[5]; first compound 8 µM,0.616
same,relative viability,[13]; first compound 0.253 µM,0.538
same,relative viability,[13]; first compound 0.8 µM,0.509
same,relative viability,[13]; first compound 2.53 µM,0.573
same,relative viability,[13]; first compound 8 µM,0.542
same,relative viability,[6]; first compound 0.253 µM,0.919
same,relative viability,[6]; first compound 0.8 µM,0.871
same,relative viability,[6]; first compound 2.53 µM,0.83
same,relative viability,[6]; first compound 8 µM,0.681
same,relative viability,[8]; first compound 0.253 µM,0.808
same,relative viability,[8]; first compound 0.8 µM,0.91
same,relative viability,[8]; first compound 2.53 µM,0.95
same,relative viability,[8]; first compound 8 µM,0.885
same,relative viability,[14]; first compound 0.253 µM,0.743
same,relative viability,[14]; first compound 0.8 µM,0.805
same,relative viability,[14]; first compound 2.53 µM,0.759
same,relative viability,[14]; first compound 8 µM,0.795
same,relative viability,[15]; first compound 0.253 µM,0.653
same,relative viability,[15]; first compound 0.8 µM,0.611
same,relative viability,[15]; first compound 2.53 µM,0.651
same,relative viability,[15]; first compound 8 µM,0.639
same,relative viability,[10]; 0.253 µM,0.975
same,relative viability,[10]; 0.8 µM,1
same,relative viability,[10]; 2.53 µM,0.955
same,relative viability,[10]; 8 µM,0.929
